# From patent US7291217B2, “Non-toxic corrosion-protection pigments based on rare earth elements” (University of Dayton, priority 2002, dated 2007)
# Where “and” joins values, the source holds several entries; their conditions need not be identical. Equal entries are not always repeated.
# Key:
# [1] = pH change on placing the compound into deionized water of pH 7; assay type: physicochemical; conditions: simple laboratory experiment
# Text: A simple laboratory experiment confirms this effect. […] However, if icosahedral Ce(NO3)6^2− (note that this ion contains no hydroxide) is placed into deionized water of pH 7, a quite remarkable pH drop to −1 can be observed. The released tetravalent cerium ions will scavenge virtually all of the available OH^− ions in solution (possibly even degrading H2O itself to obtain OH^−), resulting in this dramatic pH drop.
# [2] = reduction to the trivalent ion, cited from earlier work; for oxidation-reduction potential: in acid solution (pH 0); for calculated redox potential: in acidic solution, Nugent et al. 1971
# [3] = Cyclic Prohesion accelerated corrosion test (ASTM G-85.5) of PVB wash primer containing the pigment, rated by ASTM D-1654; conditions: ASTM D-1654 rating; for G-85 Proc. A: failure at scribe; for G-85 Proc. B: unscribed areas
# Protocol: (§1) The corrosion-inhibiting performance of CeIV pigments was evaluated by incorporating them into primer paint formulations. […] The wash primer is composed of a resin, an acid, a corrosion-inhibiting pigment, powdered talc, and carbon lampblack. The acid content of this wash primer provides a rigorous initial test of the stability and performance of the pigments. Other, more benign, polymer-based binder and resin systems might not separate the compounds based on their performance as effectively or as rapidly.
# (§2) PVB was used exclusively throughout testing to avoid preparation and compositional complications during analysis of pigment performance. However, the invention is not limited to the use of PVB.
# (§3) A small amount (0.2 g) of powdered talc (magnesium silicate) “filler” was added. Lampblack was not added to these samples. These components were mixed thoroughly by hand and 3.8 grams of phosphoric acid diluent added with further mixing. This rough processing allowed direct comparisons of pigment performance to be made without complications due to powder treatments, modifications, and additives.
# (§4) This is not the conventional paint application procedure for aluminum alloys. Under normal service conditions, aluminum alloys are first subjected to a hexavalent chromium-containing conversion coating prior to primer application. However, the conversion coating was omitted so that the performance of the pigment alone could be evaluated and not the synergistic effects of hexavalent chromium (in the conversion coating) or even of barrier films (in the phosphate or anodized coatings).
# (§5) This accelerated corrosion test exposes samples to a constant salt-water fog and is a de facto test of solubility for corrosion inhibitors. […] This accelerated corrosion test exposes samples to a cycle of fog of dilute salt and ammonium sulfate at room temperature followed by forced-air drying at an elevated temperature.
# (§6) After the paint dried for 24 hours, each plate was scribed with an X and the plate edges were sealed with PVC tape to eliminate corrosion edge effects.
# (§7) Two visual observations are associated with this rating test. Procedure A involves a rating of the failure at the scribe—the representative creepage of corrosion away from the scribe. […] In this way, not only the bulk corrosion-inhibiting action of a pigment through the binder can be rated, but also its “throwing power”.
# [4] = Static salt fog accelerated corrosion test (ASTM B-117) of PVB wash primer containing the pigment, rated by ASTM D-1654; conditions: ASTM D-1654 rating; for B-117 Proc. A: failure at scribe; for B-117 Proc. B: unscribed areas
# Protocol: as §1, §2, §3, §4, §5, §6, §7
# [5] = in water; resulting from the reported solubility product; cited from earlier work
# [6] = 2024-T3, 117 h, inhibitor conc. 1.86 × 10^−3 M (25% of Cr), two cells per column
# [7] = 7075-T6, 117 h, inhibitor conc. 1.86 × 10^−3 M (25% of Cr), two cells per column
# [8] = 2024-T3, 139 h, inhibitor conc. 3.72 × 10^−3 M (50% of Cr), sample and duplicate
# [9] = 7075-T6, 139 h, inhibitor conc. 3.72 × 10^−3 M (50% of Cr), sample and duplicate
# [10] = 2024-T3, 117 h, inhibitor conc. 7.44 × 10^−4 M (10% of Cr), sample and duplicate
# [11] = 7075-T6, 117 h, inhibitor conc. 7.44 × 10^−4 M (10% of Cr), sample and duplicate
# [12] = 2024-T3, 139 h, inhibitor conc. 7.44 × 10^−4 M (10% of Cr), sample and duplicate
# [13] = 7075-T6, 139 h, inhibitor conc. 7.44 × 10^−4 M (10% of Cr), sample and duplicate
# [14] = 2024-T3, 144 h, inhibitor conc. 5.2 × 10^−4 M (7% of Cr), sample and duplicate
# [15] = 7075-T6, 144 h, inhibitor conc. 5.2 × 10^−4 M (7% of Cr), sample and duplicate
# [16] = 2024-T3, 144 h, inhibitor conc. 3.72 × 10^−3 M (50% of Cr), sample and duplicate
# [17] = 7075-T6, 144 h, inhibitor conc. 3.72 × 10^−3 M (50% of Cr), sample and duplicate
compound,measurement,setting,value
O=[N+]([O-])O.O=[N+]([O-])O.O=[N+]([O-])O.O=[N+]([O-])O.O=[N+]([O-])O.O=[N+]([O-])O.[Ce] [Ce(NO3)6^2−],pH after placing into deionized water of pH 7,[1],−1
[Ce+4] [Ce^+4],oxidation-reduction potential,[2],1.72 V
"[Cr+6] [Cr^+6, reference compound]",oxidation-reduction potential,[2],1.36 V
CCCCCCCC[N+](C)(CCCCCCCC)CCCCCCCC.CCCCCCCC[N+](C)(CCCCCCCC)CCCCCCCC.O=[N+]([O-])[O-].O=[N+]([O-])[O-].O=[N+]([O-])[O-].O=[N+]([O-])[O-].O=[N+]([O-])[O-].O=[N+]([O-])[O-].[Ce+4] [Nitrate/Adogen 464],G-85 Proc. A,[3]; [6],7
same,G-85 Proc. A,[3]; [7],7
same,G-85 Proc. B,[3]; [6],6
same,G-85 Proc. B,[3]; [7],6
same,B-117 Proc. A,[4]; [6],5
same,B-117 Proc. A,[4]; [7],5
same,B-117 Proc. B,[4]; [6],5
same,B-117 Proc. B,[4]; [7],3 and 5
CCCC[N+](CCCC)(CCCC)CCCC.CCCC[N+](CCCC)(CCCC)CCCC.O=[N+]([O-])[O-].O=[N+]([O-])[O-].O=[N+]([O-])[O-].O=[N+]([O-])[O-].O=[N+]([O-])[O-].O=[N+]([O-])[O-].[Ce+4] [Nitrate/NBu4^+],G-85 Proc. A,[3]; [6],9
same,G-85 Proc. A,[3]; [7],9
same,G-85 Proc. B,[3]; [6],8
same,G-85 Proc. B,[3]; [7],8
same,B-117 Proc. A,[4]; [6],7
same,B-117 Proc. A,[4]; [7],7 and 6
same,B-117 Proc. B,[4]; [6],5 and 6
same,B-117 Proc. B,[4]; [7],6
CC[N+](CC)(CC)CC.CC[N+](CC)(CC)CC.O=[N+]([O-])[O-].O=[N+]([O-])[O-].O=[N+]([O-])[O-].O=[N+]([O-])[O-].O=[N+]([O-])[O-].O=[N+]([O-])[O-].[Ce+4] [Nitrate/NEt4^+],G-85 Proc. A,[3]; [6],9 and 10
same,G-85 Proc. A,[3]; [7],10
same,G-85 Proc. B,[3]; [6],7 and 8
same,G-85 Proc. B,[3]; [7],8
same,B-117 Proc. A,[4]; [6],6
same,B-117 Proc. A,[4]; [7],6 and 5
same,B-117 Proc. B,[4]; [6],3
same,B-117 Proc. B,[4]; [7],4
C[N+](C)(C)C.C[N+](C)(C)C.O=[N+]([O-])[O-].O=[N+]([O-])[O-].O=[N+]([O-])[O-].O=[N+]([O-])[O-].O=[N+]([O-])[O-].O=[N+]([O-])[O-].[Ce+4] [Nitrate/NMe4^+],G-85 Proc. A,[3]; [6],8 and 7
same,G-85 Proc. A,[3]; [7],8 and 7
same,G-85 Proc. B,[3]; [6],7 and 6
same,G-85 Proc. B,[3]; [7],7 and 6
CCCCC[N+](CCCCC)(CCCCC)CCCCC.CCCCC[N+](CCCCC)(CCCCC)CCCCC.O=[N+]([O-])[O-].O=[N+]([O-])[O-].O=[N+]([O-])[O-].O=[N+]([O-])[O-].O=[N+]([O-])[O-].O=[N+]([O-])[O-].[Ce+4] [Nitrate/NPe4^+],G-85 Proc. A,[3]; [6],9
same,G-85 Proc. A,[3]; [7],9
same,G-85 Proc. B,[3]; [6],8
same,G-85 Proc. B,[3]; [7],7
same,B-117 Proc. A,[4]; [6],6
same,B-117 Proc. A,[4]; [7],6
same,B-117 Proc. B,[4]; [6],5
same,B-117 Proc. B,[4]; [7],6
CCC[N+](CCC)(CCC)CCC.CCC[N+](CCC)(CCC)CCC.O=[N+]([O-])[O-].O=[N+]([O-])[O-].O=[N+]([O-])[O-].O=[N+]([O-])[O-].O=[N+]([O-])[O-].O=[N+]([O-])[O-].[Ce+4] [Nitrate/NPr4^+],G-85 Proc. A,[3]; [6],9 and 10
same,G-85 Proc. A,[3]; [7],9 and 8
same,G-85 Proc. B,[3]; [6],8 and 9
same,G-85 Proc. B,[3]; [7],7
same,B-117 Proc. A,[4]; [6],7
same,B-117 Proc. A,[4]; [7],7
same,B-117 Proc. B,[4]; [6],7 and 6
same,B-117 Proc. B,[4]; [7],6
[Pr+4] [Pr^+4],calculated redox potential,[2],3.2 V
[Tb+4] [Tb^+4],calculated redox potential,[2],3.2 V
"[Ce+4].[OH-].[OH-].[OH-].[OH-] [ceric hydroxide, reference compound]",cerium solubility,[5],approximately 5×10^−12 moles/liter Ce^+4
same,pH after placing into deionized water of pH 7,[1],only a minor pH change
ammonium 18-vanadatocerate,G-85 Proc. A,[3]; [8],7 and 8
same,G-85 Proc. A,[3]; [9],8
same,G-85 Proc. B,[3]; [8],6 and 7
same,G-85 Proc. B,[3]; [9],6 and 7
same,B-117 Proc. A,[4]; [8],7
same,B-117 Proc. A,[4]; [9],7
same,B-117 Proc. B,[4]; [8],6
same,B-117 Proc. B,[4]; [9],6
calcium 10-tungstocerate,G-85 Proc. A,[3]; [10],7
same,G-85 Proc. A,[3]; [11],7
same,G-85 Proc. B,[3]; [10],6
same,G-85 Proc. B,[3]; [11],6
same,B-117 Proc. A,[4]; [10],3
same,B-117 Proc. A,[4]; [11],2
calcium 11-phosphotungstocerate,G-85 Proc. A,[3]; [12],8 and 7
same,G-85 Proc. A,[3]; [13],6
same,G-85 Proc. B,[3]; [12],8 and 7
same,G-85 Proc. B,[3]; [13],5 and 6
same,B-117 Proc. A,[4]; [12],6 and 5
same,B-117 Proc. A,[4]; [13],4
same,B-117 Proc. B,[4]; [12],4
same,B-117 Proc. B,[4]; [13],3
calcium 12-molybdocerate,G-85 Proc. A,[3]; [14],8 and 7
same,G-85 Proc. A,[3]; [15],8 and 7
same,G-85 Proc. B,[3]; [14],6
same,G-85 Proc. B,[3]; [15],7 and 5
same,B-117 Proc. A,[4]; [14],6 and 7
same,B-117 Proc. A,[4]; [15],7
same,B-117 Proc. B,[4]; [14],4 and 5
same,B-117 Proc. B,[4]; [15],6
lithium periodatocerate,G-85 Proc. A,[3]; [16],7
same,G-85 Proc. A,[3]; [17],7
same,G-85 Proc. B,[3]; [16],7
same,G-85 Proc. B,[3]; [17],7
same,B-117 Proc. A,[4]; [16],6 and 5
same,B-117 Proc. A,[4]; [17],4
same,B-117 Proc. B,[4]; [16],6 and 5
same,B-117 Proc. B,[4]; [17],2 and 3
magnesium 10-tungstocerate,G-85 Proc. A,[3]; [10],9
same,G-85 Proc. A,[3]; [11],8
same,G-85 Proc. B,[3]; [10],8
same,G-85 Proc. B,[3]; [11],7
same,B-117 Proc. A,[4]; [10],5
same,B-117 Proc. A,[4]; [11],5 and 4
same,B-117 Proc. B,[4]; [10],2
same,B-117 Proc. B,[4]; [11],2
magnesium 11-phosphotungstocerate,G-85 Proc. A,[3]; [12],7
same,G-85 Proc. A,[3]; [13],7
same,G-85 Proc. B,[3]; [12],6
same,G-85 Proc. B,[3]; [13],6
same,B-117 Proc. A,[4]; [12],6
same,B-117 Proc. A,[4]; [13],5
same,B-117 Proc. B,[4]; [12],5
same,B-117 Proc. B,[4]; [13],5
